Drawing on PubChem BioAssay (NCI), this text covers TGI and GI50 for ten molecules.

Some test systems named below: HCT-116 colon; HCT-15 colon; HL-60(TB) leukemia; KM12 colon; LOX IMVI melanoma; OVCAR-3 ovarian; OVCAR-4 ovarian; SF-268 CNS; SNB-19 CNS; HCC-2998 colon; KM20L2 colon.
Common to all, as to test: DTP human tumour cell line panel, 48 h

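In this assay, cells in 96-well plates receive the compound at five concentrations for 48 hours. Endpoints are linearly interpolated between the surrounding concentrations. GI50 = concentration required for 50% inhibition of growth. TGI marks complete inhibition of growth.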

For orientation: TGI means the concentration giving total growth inhibition. A higher TGI goes with lower sensitivity of the cells. On to `O=C1c2ccccc2-c2ccc(NC(=O)C3CCCCC3C(=O)O)cc21` (stereo not given), for which the concentration for total growth inhibition (TGI) in the assay with HCT-116 colon, in the assay on HCT-15 colon, with HL-60(TB) leukemia, in the assay with KM12 colon, in the assay with LOX IMVI melanoma and in the assay with OVCAR-3 ovarian was above 100 µM in each case. In addition, the TGI in the assay on OVCAR-4 ovarian, with SF-268 CNS and in the assay with SNB-19 CNS was above 100 µM throughout.
As for `O=CNc1cccc2c3c([nH]c12)CCCCCC3`, the concentration for total growth inhibition (TGI) in the assay on HCC-2998 colon, in the assay with HCT-116 colon, in the assay on HCT-15 colon, in the assay on HL-60(TB) leukemia, in the assay on KM12 colon and in the assay with KM20L2 colon was above 100 µM each time. The TGI in the assay on LOX IMVI melanoma, in the assay on OVCAR-3 ovarian, in the assay with OVCAR-4 ovarian, in the assay on SF-268 CNS and in the assay with SNB-19 CNS was above 100 µM each time.
For the molecule `CC(C)(C)OC(=O)NC(Cc1ccccc1)C(=O)N[C@H]1c2ccsc2/C(=N/O)[C@H]1O` (stereo not given in full), the total growth inhibition concentration (TGI) in the assay on HCC-2998 colon, with HCT-116 colon, with HCT-15 colon, in the assay with HL-60(TB) leukemia, with LOX IMVI melanoma and in the assay on OVCAR-3 ovarian was above 100 µM in each case. Further, the total growth inhibition concentration (TGI) in the assay on OVCAR-4 ovarian and in the assay with SNB-19 CNS was above 100 µM in each case.
Consider `CCOC(=O)C1C(c2cc(OC)c(O)c(OC)c2)c2cc3c(cc2OC1(C)O)OCO3` (stereo not given), for which the TGI in the assay with HCT-116 colon, in the assay with HCT-15 colon, in the assay on HL-60(TB) leukemia, with KM20L2 colon, in the assay on LOX IMVI melanoma and in the assay with OVCAR-3 ovarian was above 100 µM each time. Further, the concentration for total growth inhibition (TGI) in the assay with OVCAR-4 ovarian and with SNB-19 CNS was above 100 µM each time.
In the case of `C=C1C(=O)O[C@H]2C1[C@H](OC(=O)/C(C)=C\COC(C)=O)C[C@]1(CO1)[C@@H]1[C@H](O)[C@H]3O[C@@]3(C)[C@@H]12` (stereo not given in full), the TGI with HCC-2998 colon is 22.2 µM; in the assay with HCT-116 colon, 26.5 µM; with HCT-15 colon, above 56.1 µM; in the assay on HL-60(TB) leukemia it was above 57.7 µM; with KM12 colon, 29.5 µM; in the assay with KM20L2 colon, above 82.7 µM. In addition, the TGI in the assay on LOX IMVI melanoma is 37.2 µM; in the assay with OVCAR-3 ovarian it was 44.8 µM; in the assay with OVCAR-4 ovarian, above 77.3 µM; with SF-268 CNS, 49.7 µM; in the assay with SNB-19 CNS, above 100 µM.
Consider `Cc1cc(NS(=O)(=O)c2ccc(Nc3c4ccccc4nc4c(C(=O)NCCN(C)C)ccc(Cl)c34)cc2)no1`, for which the TGI in the assay with HCT-116 colon amounted to 15.5 µM; in the assay with HCT-15 colon, 19.5 µM; with HL-60(TB) leukemia, 5.58 µM; with KM12 colon it was 19.3 µM; with KM20L2 colon, 24 µM; in the assay with LOX IMVI melanoma, 10.9 µM. Besides, the TGI with OVCAR-3 ovarian is 23.9 µM; in the assay with OVCAR-4 ovarian it was 17.6 µM; in the assay with SF-268 CNS, 15.3 µM; in the assay with SNB-19 CNS it was 9.68 µM.
For `Cc1ccc2c(c1)c(=O)c1c(NCCN(C)C)ccc3nnn2c31`, the TGI with HCC-2998 colon worked out at 17 µM; in the assay on HCT-116 colon it was 15.2 µM; in the assay with HCT-15 colon it was 20.3 µM; in the assay on HL-60(TB) leukemia it was 8.58 µM; in the assay with KM12 colon, 11.7 µM; in the assay with KM20L2 colon, 16 µM. The total growth inhibition concentration (TGI) in the assay on LOX IMVI melanoma is 4.6 µM; in the assay with OVCAR-3 ovarian it was above 42.8 µM; in the assay on OVCAR-4 ovarian, 12.9 µM; in the assay on SF-268 CNS, 20.2 µM; with SNB-19 CNS, 33.8 µM.
Regarding `CCCCc1ccc2[n+](c1)C(C(=O)OCC)=PC2` (stereo not given), the total growth inhibition concentration (TGI) with HCC-2998 colon, in the assay with HCT-116 colon, in the assay on HCT-15 colon, with HL-60(TB) leukemia, in the assay with KM12 colon and in the assay with OVCAR-3 ovarian was above 100 µM throughout. Further, the concentration for total growth inhibition (TGI) with OVCAR-4 ovarian and with SF-268 CNS was above 100 µM throughout.
On to `COc1cc(N=Nc2cccc(S(=O)(=O)O)c2)c(C)cc1N=Nc1ccc(/C=C/c2ccc(N=[N+]([O-])c3ccc(/C=C/c4ccc(N=Nc5cc(C)c(N=Nc6cccc(S(=O)(=O)O)c6)cc5OC)cc4)c(S(=O)(=O)O)c3)cc2S(=O)(=O)O)cc1`, for which the TGI with HCC-2998 colon, with HCT-116 colon, in the assay with HCT-15 colon, with HL-60(TB) leukemia, with KM12 colon and in the assay with KM20L2 colon was above 100 µM in each case. Further, the concentration for total growth inhibition (TGI) with LOX IMVI melanoma, with OVCAR-3 ovarian, in the assay on OVCAR-4 ovarian, with SF-268 CNS and in the assay on SNB-19 CNS was above 100 µM throughout.
As usually defined, the GI50 is the concentration giving 50% growth inhibition. `COC(=O)C(C)N1C(=O)c2ccccc2I1OC(C)=O` (stereo not given): the GI50 was 17.4 µM in the assay with HCC-2998 colon; 37.9 µM in the assay on HCT-15 colon; 47.2 µM in the assay with HL-60(TB) leukemia; above 100 µM in the assay on KM12 colon; 16.1 µM in the assay on LOX IMVI melanoma; 23.3 µM in the assay on OVCAR-3 ovarian. In addition, the GI50 with OVCAR-4 ovarian was 51.3 µM; in the assay with SF-268 CNS, 69 µM; in the assay with SNB-19 CNS it was above 100 µM. Moreover, the concentration for total growth inhibition (TGI) with HCC-2998 colon was 38.4 µM; in the assay on HCT-15 colon, above 100 µM; in the assay with HL-60(TB) leukemia, above 100 µM; with KM12 colon, above 100 µM; in the assay with LOX IMVI melanoma, 34.8 µM; in the assay on OVCAR-3 ovarian, above 100 µM. Further, the concentration for total growth inhibition (TGI) in the assay with OVCAR-4 ovarian, in the assay on SF-268 CNS and in the assay on SNB-19 CNS was above 100 µM throughout.
